Test results: ChEMBL document CHEMBL1938244, “Synthesis, anticancer activity and apoptosis inducing ability of bisindole linked pyrrolo[2,1-c][1,4]benzodiazepine conjugates” (2012)
Activity calls are given as the source filed them. The rule behind the calls is not given here.

Experiments:
MCF7 [1] = assay: Induction of cell cycle arrest in human MCF7 cells assessed as accumulation of cells in S phase at 8 uM after 24 hrs by flow cytometry (reference value: 5.55%); type: functional
MCF7 [2] = assay: Induction of cell cycle arrest in human MCF7 cells assessed as accumulation of cells in G2/M phase at 2 uM after 24 hrs by flow cytometry relative to untreated control; type: functional
MCF7 [3] = assay: Inhibition of HDAC8 protein expression in human MCF7 cells at 2 uM after 24 hrs by Western blotting; type: functional, cell-based
MCF7 [4] = assay: Induction of cell cycle arrest in human MCF7 cells assessed as accumulation of cells in G2/M phase at 4 uM after 24 hrs by flow cytometry relative to untreated control; type: functional
MCF7 [5] = assay: Induction of cell cycle arrest in human MCF7 cells assessed as accumulation of cells in G0 phase at 4 uM after 24 hrs by flow cytometry (reference value: 3.22%); type: functional
MCF7 [6] = assay: Induction of cell cycle arrest in human MCF7 cells assessed as accumulation of cells in G1 phase at 2 uM after 24 hrs by flow cytometry (reference value: 46%); type: functional
MCF7 [7] = assay: Induction of cell cycle arrest in human MCF7 cells assessed as accumulation of cells in S phase at 2 uM after 24 hrs by flow cytometry relative to untreated control; type: functional
MCF7 [8] = assay: Induction of cell cycle arrest in human MCF7 cells assessed as accumulation of cells in G2/M phase at 2 uM after 24 hrs by flow cytometry (reference value: 36.23%); type: functional
MCF7 [9] = assay: Induction of apoptosis in human MCF7 cells assessed as PARP-cleavage at 8 uM after 24 hrs by Western blot analysis; type: functional, cell-based
MCF7 [10] = assay: Induction of cell cycle arrest in human MCF7 cells assessed as accumulation of cells in G2/M phase at 4 uM after 24 hrs by flow cytometry (reference value: 25.65%); type: functional
MCF7 [11] = assay: Induction of cell cycle arrest in human MCF7 cells assessed as accumulation of cells in S phase at 4 uM after 24 hrs by flow cytometry (reference value: 5.55%); type: functional
MCF7 [12] = assay: Induction of cell cycle arrest in human MCF7 cells assessed as accumulation of cells in S phase at 4 uM after 24 hrs by flow cytometry relative to untreated control; type: functional
MCF7 [13] = assay: Induction of cell cycle arrest in human MCF7 cells assessed as accumulation of cells in S phase at 2 uM after 24 hrs by flow cytometry (reference value: 14.87%); type: functional
MCF7 [14] = assay: Induction of apoptosis in human MCF7 cells assessed as caspase-7 activation at 8 uM after 24 hrs by Western blot analysis; type: functional, cell-based
Tubulin (Homo sapiens) = Tubulin (Homo sapiens) (UniProt P68371+Q9H4B7+P0DPH7+P68366+Q13509+Q71U36+P04350+Q3ZCM7+P07437+P68363+Q9BQE3+Q6PEY2+Q13885+Q9BVA1+Q9BUF5); assay: Inhibition of tubulin polymerization in human MCF7 cells at 2 uM after 24 hrs by FITC-conjugated immunostaining assay; type: cell-based
MCF7 [15] = assay: Induction of cell cycle arrest in human MCF7 cells assessed as accumulation of cells in S phase at 8 uM after 24 hrs by flow cytometry relative to untreated control; type: functional
MCF7 [16] = assay: Induction of cell cycle arrest in human MCF7 cells assessed as accumulation of cells in G1 phase at 4 uM after 24 hrs by flow cytometry relative to untreated control; type: functional
MCF7 [17] = assay: Induction of cell cycle arrest in human MCF7 cells assessed as accumulation of cells in G1 phase at 2 uM after 24 hrs by flow cytometry relative to untreated control; type: functional
MCF7 [18] = assay: Induction of cell cycle arrest in human MCF7 cells assessed as accumulation of cells in G0 phase at 2 uM after 24 hrs by flow cytometry (reference value: 2.9%); type: functional
MCF7 [19] = assay: Induction of cell cycle arrest in human MCF7 cells assessed as accumulation of cells in G0 phase at 8 uM after 24 hrs by flow cytometry (reference value: 3.22%); type: functional
MCF7 [20] = assay: Anticancer activity against human MCF7 cells assessed as cell death at 2 uM after 24 hrs by MTT assay; type: functional
MCF7 [21] = assay: Induction of cell cycle arrest in human MCF7 cells assessed as accumulation of cells in G2/M phase at 8 uM after 24 hrs by flow cytometry relative to untreated control; type: functional
MCF7 [22] = assay: Inhibition of HDAC1 protein expression in human MCF7 cells at 2 uM after 24 hrs by Western blotting; type: functional, cell-based
MCF7 [23] = assay: Induction of cell cycle arrest in human MCF7 cells assessed as accumulation of cells in G0 phase at 2 uM after 24 hrs by flow cytometry relative to untreated control; type: functional
MCF7 [24] = assay: Induction of cell cycle arrest in human MCF7 cells assessed as accumulation of cells in G0 phase at 8 uM after 24 hrs by flow cytometry relative to untreated control; type: functional
MCF7 [25] = assay: Induction of cell cycle arrest in human MCF7 cells assessed as accumulation of cells in G1 phase at 4 uM after 24 hrs by flow cytometry (reference value: 65.58%); type: functional
MCF7 [26] = assay: Induction of cell cycle arrest in human MCF7 cells assessed as accumulation of cells in G1 phase at 8 uM after 24 hrs by flow cytometry relative to untreated control; type: functional
MCF7 [27] = assay: Inhibition of HDAC3 protein expression in human MCF7 cells at 2 uM after 24 hrs by Western blotting; type: functional, cell-based
MCF7 [28] = assay: Induction of cell cycle arrest in human MCF7 cells assessed as accumulation of cells in G1 phase at 8 uM after 24 hrs by flow cytometry (reference value: 65.58%); type: functional
MCF7 [29] = assay: Inhibition of HDAC2 protein expression in human MCF7 cells at 2 uM after 24 hrs by Western blotting; type: functional, cell-based
MCF7 [30] = assay: Induction of cell cycle arrest in human MCF7 cells assessed as accumulation of cells in G2/M phase at 8 uM after 24 hrs by flow cytometry (reference value: 25.65%); type: functional
MCF7 [31] = assay: Induction of cell cycle arrest in human MCF7 cells assessed as accumulation of cells in G0 phase at 4 uM after 24 hrs by flow cytometry relative to untreated control; type: functional
A549 = assay: Anticancer activity against human A549 cells by SRB method; type: functional
MCF7 [32] = assay: Anticancer activity against human MCF7 cells by SRB method; type: functional
A2780 = assay: Anticancer activity against human A2780 cells by SRB method; type: functional
SiHa = assay: Anticancer activity against human SiHa cells by SRB method; type: functional
COLO 205 = assay: Anticancer activity against human COLO205 cells by SRB method; type: functional
KB = assay: Anticancer activity against human KB cells by SRB method; type: functional
ZR-75-1 = assay: Anticancer activity against human ZR-75-1 cells by SRB method; type: functional

| Structure (SMILES) | Activity (MCF7 [1]) [%] | Activity (MCF7 [2]) [%] | inhibition (MCF7 [3]) | Activity (MCF7 [4]) [%] | Activity (MCF7 [5]) [%] | Activity (MCF7 [6]) [%] | Activity (MCF7 [7]) [%] | Activity (MCF7 [8]) [%] | Activity (MCF7 [9]) | Activity (MCF7 [10]) [%] | Activity (MCF7 [11]) [%] | Activity (MCF7 [12]) [%] | Activity (MCF7 [13]) [%] | Activity (MCF7 [14]) | inhibition (Tubulin (Homo sapiens)) | GI50 (MCF7 [32]) [µM] | GI50 (A2780) [µM] | GI50 (SiHa) [µM] | GI50 (COLO 205) [µM] | GI50 (KB) [µM] | further results |
| --- | --- | --- | --- | --- | --- | --- | --- | --- | --- | --- | --- | --- | --- | --- | --- | --- | --- | --- | --- | --- | --- |
| Oc1ccc(C(c2c[nH]c3ccccc23)c2c[nH]c3ccccc23)cc1 | 8.97 | 33.7 | Active | 35.56 | 5 | 54 | 9.26 | 34 | Active | 34.69 | 9.34 | 9.78 | 9 | Active | Active |  |  |  |  |  | Activity (MCF7 [15]): 8.99%; Activity (MCF7 [16]): 49.65%; Activity (MCF7 [17]): 53.85%; Activity (MCF7 [18]): 3%; Activity (MCF7 [19]): 7%; Activity (MCF7 [20]): Active; Activity (MCF7 [21]): 37.97%; inhibition (MCF7 [22]): Active; Activity (MCF7 [23]): 3.16%; Activity (MCF7 [24]): 7.05%; Activity (MCF7 [25]): 50.97%; Activity (MCF7 [26]): 46.19%; inhibition (MCF7 [27]): Active; Activity (MCF7 [28]): 47.59%; inhibition (MCF7 [29]): Active; Activity (MCF7 [30]): 36.44%; Activity (MCF7 [31]): 5.01% |
| COc1cc2c(cc1OCCCCCCOc1ccc(C(c3c[nH]c4ccccc34)c3c[nH]c4ccccc34)cc1)N=C[C@@H]1CCCN1C2=O |  |  |  |  |  |  |  |  |  |  |  |  |  |  |  | 0.14 | 2.46 |  |  |  | GI50 (A549): 29 µM |
| COc1cc2c(cc1O)N=C[C@@H]1CCCN1C2=O | 4.59 | 33.79 | Active | 11.31 | 9.56 | 53.62 | 8.02 | 34.4 | Active | 11.33 | 9.57 | 8.56 | 8.26 | Active | inactive | 0.17 | 0.14 | 0.16 | 0.11 | 0.17 | GI50 (A549): 0.16 µM; Activity (MCF7 [15]): 4.53%; Activity (MCF7 [16]): 70.84%; Activity (MCF7 [17]): 55.11%; Activity (MCF7 [18]): 3.72%; Activity (MCF7 [19]): 30.04%; Activity (MCF7 [20]): Active; Activity (MCF7 [21]): 8.05%; inhibition (MCF7 [22]): Active; Activity (MCF7 [23]): 3.14%; Activity (MCF7 [24]): 29.68%; Activity (MCF7 [25]): 69.54%; Activity (MCF7 [26]): 57.74%; inhibition (MCF7 [27]): Active; Activity (MCF7 [28]): 58.22%; inhibition (MCF7 [29]): Active; Activity (MCF7 [30]): 7.15%; Activity (MCF7 [31]): 9.27% |
| COc1cccc2c1C(=O)c1c(O)c3c(c(O)c1C2=O)C[C@@](O)(C(=O)CO)C[C@@H]3O[C@H]1C[C@H](N)[C@H](O)[C@H](C)O1 [DOXORUBICIN] |  |  |  |  |  |  |  |  |  |  |  |  |  |  |  | < 0.1 | < 0.1 | 1.9 | 14.7 | 0.16 | GI50 (A549): 13 µM; GI50 (ZR-75-1): < 0.1 µM |
| COc1cc2c(cc1OCCCCCCOc1cccc(C(c3c[nH]c4ccccc34)c3c[nH]c4ccccc34)c1)N=C[C@@H]1CCCN1C2=O |  |  |  |  |  |  |  |  |  |  |  |  |  |  |  | 2.01 | 2.29 | 30.8 | 2.3 | 30.1 |  |
| COc1cc2c(cc1OCCCCOc1cccc(C(c3c[nH]c4ccccc34)c3c[nH]c4ccccc34)c1)N=C[C@@H]1CCCN1C2=O |  |  |  |  |  |  |  |  |  |  |  |  |  |  |  | 2.01 | 27 |  | 28.5 |  |  |
| Oc1cccc(C(c2c[nH]c3ccccc23)c2c[nH]c3ccccc23)c1 | 9.08 | 36.03 | Active | 36.3 | 4 | 50 | 9.86 | 37 | Active | 36.08 | 9.24 | 9.41 | 10.1 | Active | Active |  |  |  |  |  | Activity (MCF7 [15]): 10.02%; Activity (MCF7 [16]): 50.56%; Activity (MCF7 [17]): 51.23%; Activity (MCF7 [18]): 2.9%; Activity (MCF7 [19]): 6%; Activity (MCF7 [20]): Active; Activity (MCF7 [21]): 37.97%; inhibition (MCF7 [22]): Active; Activity (MCF7 [23]): 2.8%; Activity (MCF7 [24]): 6.03%; Activity (MCF7 [25]): 50.68%; Activity (MCF7 [26]): 45.99%; inhibition (MCF7 [27]): Active; Activity (MCF7 [28]): 46.98%; inhibition (MCF7 [29]): Active; Activity (MCF7 [30]): 37.93%; Activity (MCF7 [31]): 3.63% |
| COc1cc2c(cc1OCCCCOc1ccc(C(c3c[nH]c4ccccc34)c3c[nH]c4ccccc34)cc1)N=C[C@@H]1CCCN1C2=O |  |  |  |  |  |  |  |  |  |  |  |  |  |  |  | 0.18 | 2.07 | 2.49 | 24 | 2.3 | GI50 (ZR-75-1): 26.5 µM |
